For assay [1], the target named is T1, human Werner helicase (WRN, Uniprot Q14191, amino acids 517-1235 with L1074F point mutation; WRN-BV08) (Homo sapiens, UniProt Q14191, L1074F).
T1 construct: Uniprot Q14191, amino acids 517-1235 with L1074F point mutation; 8xHis (C, cleaved yes); TEV cleavage site (ENLYFQG) (C, cleaved yes); made in house; host or cells: Sf9 insect cells (baculovirus, pFastBac)
The assay can be described thus: WRN (BV08) ADP-Glo assay. The class given is biochemical. The following applies: WRN-BV08 (aa 517-1235, L1074F); read-out: ADP-Glo_hWRN_IC50. An outline of the steps: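 ADP formed by untagged WRN helicase fragment (aa 517-1235, L1074F; 0.15 nM final) on 0.1 nM DNA duplex with […], 60 min at 25 °C after 15 min compound preincubation, pH 7.5 Bicine buffer. Luminescent ADP-Glo readout; IC50 from 4-parameter fit of % inhibition.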

For assay [2], the system named is p21 induction in HCT 116 cells. The assay can be described thus: p21 induction in cells (In-Cell Western, p21/GAPDH ratio). The class given is cell-based. The following applies: 24 h compound incubation, read-out: P21_EC50. In short, it runs like this:
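p21 and GAPDH signals quantified by In-Cell Western after 24 h compound exposure of HCT 116 cells (11 concentrations, 2-fold steps, usual top 10 μM). Percent activation from p21/GAPDH ratio relative to DMSO (low) and internal WRN inhibitor (high) controls; curve fit gave EC50.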

Where two headings read alike, the source gives them in different places. Where only a bound is given, the exact number is not on record here.

T1 sequence (Q14191 with tags, fused parts or gaps L1074F): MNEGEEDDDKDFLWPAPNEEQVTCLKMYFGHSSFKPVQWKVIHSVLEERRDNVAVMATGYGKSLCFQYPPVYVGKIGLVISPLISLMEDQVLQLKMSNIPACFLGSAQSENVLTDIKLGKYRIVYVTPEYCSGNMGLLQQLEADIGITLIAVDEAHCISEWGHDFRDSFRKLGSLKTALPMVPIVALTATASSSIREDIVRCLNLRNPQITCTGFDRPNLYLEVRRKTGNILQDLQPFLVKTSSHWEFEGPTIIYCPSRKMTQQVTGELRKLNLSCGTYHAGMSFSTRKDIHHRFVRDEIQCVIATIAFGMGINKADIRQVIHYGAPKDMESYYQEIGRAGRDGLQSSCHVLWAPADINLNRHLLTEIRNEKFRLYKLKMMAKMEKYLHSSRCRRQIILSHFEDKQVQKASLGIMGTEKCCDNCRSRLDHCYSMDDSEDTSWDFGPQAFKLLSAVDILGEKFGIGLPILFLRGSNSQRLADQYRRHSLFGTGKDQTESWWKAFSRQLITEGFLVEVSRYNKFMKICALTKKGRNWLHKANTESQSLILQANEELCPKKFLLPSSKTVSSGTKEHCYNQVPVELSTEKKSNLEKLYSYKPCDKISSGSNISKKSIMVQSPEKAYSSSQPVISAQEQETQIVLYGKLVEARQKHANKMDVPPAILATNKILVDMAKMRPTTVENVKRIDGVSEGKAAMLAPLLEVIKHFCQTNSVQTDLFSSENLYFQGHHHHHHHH

`CCc1c(N2CCN(C(=O)c3ncnc(C)c3O)CC2)c(=O)n2nc(-c3ccncc3)nc2n1CC(=O)NC12CC(C3CCC3)(C1)C2` [I-219, N-(3-cyclobutylbicyclo[1.1.1]pentan-1-yl)-2-(5-ethyl-6-(4-(5-hydroxy-6-methylpyrimidine-4-carbonyl)piperazin-1-yl)-7-oxo-2-(pyridin-4-yl)-[1,2,4]triazolo[1,5-a]pyrimidin-4(7H)-yl)acetamide]: the IC50 in assay [1] fell in the range of 5 to 50 nM. Further, the EC50 in assay [2] (Homo sapiens, HCT-116, 24 h) lay within 500 to 2000 nM.
On to `CCc1c(N2CCN(C(=O)c3c(O)ccc4ncoc34)CC2)c(=O)n2nc(-c3ccnc(OC)c3)nc2n1CC(=O)NC12CCC(C(F)(F)F)(CC1)CC2` [I-45, 2-(5-ethyl-6-(4-(6-hydroxybenzo[d]oxazole-7-carbonyl)piperazin-1-yl)-2-(2-methoxypyridin-4-yl)-7-oxo-[1,2,4]triazolo[1,5-a]pyrimidin-4(7H)-yl)-N-(4-(trifluoromethyl)bicyclo[2.2.2]octan-1-yl)acetamide], for which, in assay [1], the IC50 was in the range of 5 to 50 nM. For the same compound, the EC50 in assay [2] (Homo sapiens, HCT-116, 24 h) lay in the range of 2000 to 5000 nM.
Take `CCc1c(N2CCN(C(=O)c3c(O)ccc4ncoc34)CC2)c(=O)n2nc(C3=CCOCC3)nc2n1CC(=O)NC12CC(C(C)C)(C1)C2` [I-42, 2-(2-(3,6-dihydro-2H-pyran-4-yl)-5-ethyl-6-(4-(6-hydroxybenzo[d]oxazole-7-carbonyl)piperazin-1-yl)-7-oxo-[1,2,4]triazolo[1,5-a]pyrimidin-4(7H)-yl)-N-(3-isopropylbicyclo[1.1.1]pentan-1-yl)acetamide]: the IC50 in assay [1] lay in the range of 5 to 50 nM. In addition, the EC50 in assay [2] (Homo sapiens, HCT-116, 24 h) was no more than 500 nM.
For `CCc1c(N2CCN(C(=O)c3cnn(C)c3)CC2)c(=O)n2nc(-c3ccnc(OC)c3)nc2n1CC(=O)NC1CC2(C1)CC2F` (stereo not drawn) [I-247, 2-(5-ethyl-2-(2-methoxypyridin-4-yl)-6-(4-(1-methyl-1H-pyrazole-4-carbonyl)piperazin-1-yl)-7-oxo-[1,2,4]triazolo[1,5-a]pyrimidin-4(7H)-yl)-N-(1-fluorospiro[2.3]hexan-5-yl)acetamide], the IC50 in assay [1] lay within 100 to 500 nM. In addition, in assay [2] (Homo sapiens, HCT-116, 24 h), the EC50 was greater than 5000 nM.
For the compound `CCc1c(N2CCN(C(=O)c3ncnc(C)c3O)[C@H]3CC[C@@H]32)c(=O)n2nc(-c3ccnc(OC)c3)nc2n1CC(=O)NC12CC(C3CC3)(C1)C2` [I-208, N-(3-cyclopropylbicyclo[1.1.1]pentan-1-yl)-2-(5-ethyl-6-((1S,6S)-5-(5-hydroxy-6-methylpyrimidine-4-carbonyl)-2,5-diazabicyclo[4.2.0]octan-2-yl)-2-(2-methoxypyridin-4-yl)-7-oxo-[1,2,4]triazolo[1,5-a]pyrimidin-4(7H)-yl)acetamide], the IC50 in assay [1] lay in the range of 5 to 50 nM. The EC50 in assay [2] (Homo sapiens, HCT-116, 24 h) is no more than 500 nM.
`CCc1c(N2CCN(C(=O)c3c(O)ccnc3OC)CC2)c(=O)n2nc(C3=CCOCC3)nc2n1CC(=O)NC12CC(C(F)(F)F)(C1)C2` [I-239, 2-(2-(3,6-dihydro-2H-pyran-4-yl)-5-ethyl-6-(4-(4-hydroxy-2-methoxynicotinoyl)piperazin-1-yl)-7-oxo-[1,2,4]triazolo[1,5-a]pyrimidin-4(7H)-yl)-N-(3-(trifluoromethyl)bicyclo[1.1.1]pentan-1-yl)acetamide]: in assay [1], the IC50 lay within 50 to 100 nM. In addition, the EC50 in assay [2] (Homo sapiens, HCT-116, 24 h) is greater than 5000 nM.
For `CCc1c(N2CCN(C(=O)c3ncnc(C)c3O)CC2)c(=O)c2nc(N(C)C)cnc2n1CC(=O)NC12CC(C(F)(F)F)(C1)C2` [I-1, 2-(2-(dimethylamino)-6-ethyl-7-(4-(5-hydroxy-6-methylpyrimidine-4-carbonyl)piperazin-1-yl)-8-oxopyrido[2,3-b]pyrazin-5(8H)-yl)-N-(3-(trifluoromethyl)bicyclo[1.1.1]pentan-1-yl)acetamide], the IC50 in assay [1] was 100 to 500 nM. The EC50 in assay [2] (Homo sapiens, HCT-116, 24 h) was greater than 5000 nM.
Consider `CCc1c(N2CCN(C(=O)c3ncnc(C)c3O)[C@H]3CC[C@@H]32)c(=O)c2nc(N(C)C)cnc2n1CC(=O)NC1CC2(CC(C)C2)C1` (stereo partly drawn) [I-238, 2-(2-(dimethylamino)-6-ethyl-7-((1S,6S)-5-(5-hydroxy-6-methylpyrimidine-4-carbonyl)-2,5-diazabicyclo[4.2.0]octan-2-yl)-8-oxopyrido[2,3-b]pyrazin-5(8H)-yl)-N-(6-methylspiro[3.3]heptan-2-yl)acetamide], for which the IC50 in assay [1] was in the range of 50 to 100 nM. Besides, the EC50 in assay [2] (Homo sapiens, HCT-116, 24 h) is greater than 5000 nM.
Take `CCc1c(C2=CCN(C(=O)c3ncnc(C)c3O)CC2C)c(=O)c2nn(-c3ccnc(OC)c3)nc2n1CC(=O)NC12CC(C(C)C)(C1)C2` (single isomer, unassigned) [I-98]: the IC50 in assay [1] is 5 to 50 nM. The EC50 in assay [2] was 500 to 2000 nM.
Consider `CCc1c(N2CCN(C(=O)c3cnn(C)c3)CC2)c(=O)n2nc(-c3ccnc(OC)c3)nc2n1CC(=O)N[C@@H]1C[C@H]1c1c(F)cccc1F` (racemic) [I-244, rac-N-((1R,2S)-2-(2,6-difluorophenyl)cyclopropyl)-2-(5-ethyl-2-(2-methoxypyridin-4-yl)-6-(4-(1-methyl-1H-pyrazole-4-carbonyl)piperazin-1-yl)-7-oxo-[1,2,4]triazolo[1,5-a]pyrimidin-4(7H)-yl)acetamide], for which the IC50 in assay [1] lay within 100 to 500 nM. Further, the EC50 in assay [2] (Homo sapiens, HCT-116, 24 h) is greater than 5000 nM.
For `CCc1c(N2CCN(C(=O)c3c(O)ccc4ncoc34)CC2)c(=O)n2nc(-c3ccnc(OC)c3)nc2n1CC(=O)NC12C3C4C1C1C2C3C41C(F)(F)F` (stereo not drawn) [I-220, 2-(5-ethyl-6-(4-(6-hydroxybenzo[d]oxazole-7-carbonyl)piperazin-1-yl)-2-(2-methoxypyridin-4-yl)-7-oxo-[1,2,4]triazolo[1,5-a]pyrimidin-4(7H)-yl)-N-(4-(trifluoromethyl)cuban-1-yl)acetamide], the IC50 in assay [1] lay in the range of 5 to 50 nM. Moreover, in assay [2] (Homo sapiens, HCT-116, 24 h), the EC50 fell in the range of 500 to 2000 nM.
`CCc1c(N2CCN(C(=O)c3c(O)ccc4ncoc34)CC2)c(=O)n2nc(-c3ccnc(OC)c3)nc2n1CC(=O)NC12CC(CC)(C1)C2` [I-23, 2-(5-ethyl-6-(4-(6-hydroxybenzo[d]oxazole-7-carbonyl)piperazin-1-yl)-2-(2-methoxypyridin-4-yl)-7-oxo-[1,2,4]triazolo[1,5-a]pyrimidin-4(7H)-yl)-N-(3-ethylbicyclo[1.1.1]pentan-1-yl)acetamide]: the IC50 in assay [1] was in the range of 5 to 50 nM. The EC50 in assay [2] (Homo sapiens, HCT-116, 24 h) was no more than 500 nM.
As to `CCc1c(N2CCN(C(=O)c3c(O)ccc4ncoc34)CC2)c(=O)n2nc(-c3ccnc(OC)c3)nc2n1CC(=O)NC1CC2(CCC2)C1` [I-206, 2-(5-ethyl-6-(4-(6-hydroxybenzo[d]oxazole-7-carbonyl)piperazin-1-yl)-2-(2-methoxypyridin-4-yl)-7-oxo-[1,2,4]triazolo[1,5-a]pyrimidin-4(7H)-yl)-N-(spiro[3.3]heptan-2-yl)acetamide], the IC50 in assay [1] was in the range of 5 to 50 nM. Also, in assay [2] (Homo sapiens, HCT-116, 24 h), the EC50 lay within 500 to 2000 nM.
For the compound `CCc1c(N2CCN(C(=O)c3ncnc(C)c3O)[C@H]3CC[C@@H]32)c(=O)c2nc(N(C)C)cnc2n1CC(=O)NC12CC(C3CC3)(C1)C2` [I-232, N-(3-cyclopropylbicyclo[1.1.1]pentan-1-yl)-2-(2-(dimethylamino)-6-ethyl-7-((1S,6S)-5-(5-hydroxy-6-methylpyrimidine-4-carbonyl)-2,5-diazabicyclo[4.2.0]octan-2-yl)-8-oxopyrido[2,3-b]pyrazin-5(8H)-yl)acetamide], the IC50 in assay [1] fell in the range of 5 to 50 nM. For the same compound, in assay [2] (Homo sapiens, HCT-116, 24 h), the EC50 lay within 500 to 2000 nM.
For `CCc1c(N2CCN(C(=O)c3c(OC)cccc3B(O)O)[C@H]3CC[C@@H]32)c(=O)c2nn(C3=CCOCC3)nc2n1CC(=O)NC12CC(C(C)C)(C1)C2` [I-204, (2-((1S,6S)-5-(2-(3,6-dihydro-2H-pyran-4-yl)-5-ethyl-4-(2-((3-isopropylbicyclo[1.1.1]pentan-1-yl)amino)-2-oxoethyl)-7-oxo-4,7-dihydro-2H-[1,2,3]triazolo[4,5-b]pyridin-6-yl)-2,5-diazabicyclo[4.2.0]octane-2-carbonyl)-3-methoxyphenyl)boronic acid], in that order: 5 to 50 nM and no more than 500 nM.
As to `CCc1c(N2CCN(C(=O)c3ncnc(C)c3O)[C@H]3CC[C@@H]32)c(=O)c2c(nnn2C2CC2)n1CC(=O)NC12CC(C3CC3)(C1)C2` [I-245, 2-(1-cyclopropyl-5-ethyl-6-((1S,6S)-5-(5-hydroxy-6-methylpyrimidine-4-carbonyl)-2,5-diazabicyclo[4.2.0]octan-2-yl)-7-oxo-1,7-dihydro-4H-[1,2,3]triazolo[4,5-b]pyridin-4-yl)-N-(3-cyclopropylbicyclo[1.1.1]pentan-1-yl)acetamide], the IC50 in assay [1] was 100 to 500 nM. The EC50 in assay [2] (Homo sapiens, HCT-116, 24 h) lay in the range of 2000 to 5000 nM.
Regarding `CCc1c(N2CCN(C(=O)c3ncc4c(c3O)CCO4)CC2)c(=O)n2nc(C3=CCN(C(=O)COC)CC3)nc2n1CC(=O)NC12CC(C(F)(F)F)(C1)C2` [I-21, 2-(5-ethyl-6-(4-(4-hydroxy-2,3-dihydrofuro[2,3-c]pyridine-5-carbonyl)piperazin-1-yl)-2-(1-(2-methoxyacetyl)-1,2,3,6-tetrahydropyridin-4-yl)-7-oxo-[1,2,4]triazolo[1,5-a]pyrimidin-4(7H)-yl)-N-(3-(trifluoromethyl)bicyclo[1.1.1]pentan-1-yl)acetamide], the IC50 in assay [1] was in the range of 5 to 50 nM. Also, in assay [2] (Homo sapiens, HCT-116, 24 h), the EC50 lay in the range of 2000 to 5000 nM.
With `CCc1c(N2CCN(C(=O)c3ncccc3C(=O)O)CC2)c(=O)c2nn(-c3ccnc(OC)c3)nc2n1CC(=O)NC12CC(C3CC3)(C1)C2` [I-216, 2-(4-(4-(2-((3-cyclopropylbicyclo[1.1.1]pentan-1-yl)amino)-2-oxoethyl)-5-ethyl-2-(2-methoxypyridin-4-yl)-7-oxo-4,7-dihydro-2H-[1,2,3]triazolo[4,5-b]pyridin-6-yl)piperazine-1-carbonyl)nicotinic acid], the IC50 in assay [1] lay within 5 to 50 nM. For the same compound, the EC50 in assay [2] (Homo sapiens, HCT-116, 24 h) was greater than 5000 nM.

For the origin of these results see patent US20250206738A1, “WRN INHIBITORS” (Nimbus Wadjet, Inc., priority 2023, published 2025).
